Active and inactive are the calls of the source. How the calls were made is not given here.
System: GENE-TOX genotoxicity assays, various organisms and cells
Test: GENE-TOX mutagenicity studies
Conditions: for call: Assay Type: In vivo carcinogenicity studies
From the text: GENE-TOX provides genetic toxicology (mutagenicity) test data from expert peer review of open scientific literature for more than 3,000 chemicals from the United States Environmental Protection Agency (EPA). GENE-TOX was established to select assay systems for evaluation, review data in the scientific literature, and recommend proper testing protocols and evaluation procedures for these systems.
GENE-TOX covers the years 1991 - 1998. It is no longer updated.
This is an archive assay for GENE-TOX mutagenicity studies.

[1] = Species/Cell Type: Nonhuman, Assay Type: Sister-chromatid exchange (SCE) in vitro, Assay Code: SC2+, Evaluation Type: Evaluation B (Post-1980)
[2] = Species/Cell Type: Fischer rat embryo (RLV/1706) cells, Assay Type: Cell transformation, viral enhanced, Assay Code: CTR+, Evaluation Type: Evaluation A (Pre-1980)
[3] = Species/Cell Type: Syrian hamster embryo (SA7/SHE) cells, Assay Type: Cell transformation, viral enhanced, Assay Code: CT7+, Evaluation Type: Evaluation A (Pre-1980)
[4] = Species/Cell Type: Mammalian polychromatic erythrocytes, Assay Type: Micronucleus test, chromosome aberrations, Assay Code: MNT+, Evaluation Type: Evaluation B (Post-1980)
[5] = Species/Cell Type: Salmonella typhimurium (one or more of the five standard strains: TA98, TA100, TA1535, TA1537, and TA1538), Assay Type: Histidine reverse gene mutation, Ames assay, Assay Code: SAL+, Evaluation Type: Evaluation A (Pre-1980)
[6] = Species/Cell Type: Drosophila melanogaster, Assay Type: Sex-linked recessive lethal gene mutation, Assay Code: SRLT, Evaluation Type: Evaluation A (Pre-1980)
[7] = Species/Cell Type: Human lymphocytes, Assay Type: Sister-chromatid exchange (SCE) in vitro, Assay Code: SCLT, Evaluation Type: Evaluation B (Post-1980)
[8] = Species/Cell Type: Human, Assay Type: Sister-chromatid exchange (SCE) in vitro, Assay Code: SC1T, Evaluation Type: Evaluation B (Post-1980)
[9] = Species/Cell Type: Nonhuman, Assay Type: Sister-chromatid exchange (SCE) in vivo, Assay Code: SC3T, Evaluation Type: Evaluation B (Post-1980)
[10] = Species/Cell Type: Salmonella typhimurium (one or more of the five standard strains: TA98, TA100, TA1535, TA1537, and TA1538), Assay Type: Histidine reverse gene mutation, Ames assay, Assay Code: SAL+*, Activation: With metabolic activation, Evaluation Type: Evaluation A (Pre-1980)
[11] = Species/Cell Type: Chinese hamster ovary (CHO) cells, Assay Type: Forward gene mutation at the HPRT locus, Assay Code: CHO+, Evaluation Type: Evaluation B (Post-1980)

O.O.O.O.O.[Cd+2].[Cd+2].[Cl-].[Cl-].[Cl-].[Cl-]
mutagenic call [1]: active; positive

O=P(O)(O)O
mutagenic call (Species/Cell Type: Syrian hamster embryo (SA7/SHE) cells, Assay Type: Cell transformation, viral enhanced, Assay Code: CT7-, Evaluation Type: Evaluation A (Pre-1980)): inactive; negative

CCN(CC)CCn1c2ccc(C)c3c2c([n+]1[O-])-c1ccc(Cl)cc1S3
mutagenic call (Species/Cell Type: Salmonella typhimurium (one or more of the five standard strains: TA98, TA100, TA1535, TA1537, and TA1538), Assay Type: Histidine reverse gene mutation, Ames assay, Assay Code: SALT, Evaluation Type: Evaluation A (Pre-1980)): no conclusion

[Cl][Mn][Cl]
mutagenic call (Species/Cell Type: Bacillus subtilis (H17 vs M45), Assay Type: Rec-assay, spot test, DNA effects (bacterial DNA repair), Assay Code: REW+, Evaluation Type: Evaluation A (Pre-1980)): active; positive
mutagenic call [2]: active; positive
mutagenic call (Species/Cell Type: Nonhuman, Assay Type: Sister-chromatid exchange (SCE) in vitro, Assay Code: SC2T, Evaluation Type: Evaluation B (Post-1980)): no conclusion
mutagenic call [3]: active; positive

CCCCCc1cc(O)c2c(c1)OC(C)(C)c1ccc(C)cc1-2
mutagenic call (Species/Cell Type: Fischer rat embryo (RLV/1706) cells, Assay Type: Cell transformation, viral enhanced, Assay Code: CTR-, Evaluation Type: Evaluation A (Pre-1980)): inactive; negative
mutagenic call (Species/Cell Type: Human lymphocytes, Assay Type: Sister-chromatid exchange (SCE) in vivo, Assay Code: SCY+, Evaluation Type: Evaluation B (Post-1980)): active; positive
mutagenic call [4]: active; positive
mutagenic call (Species/Cell Type: Mouse, Sex: Male, Assay Type: Sperm morphology, Assay Code: SPI+, Evaluation Type: Evaluation A (Pre-1980)): active; positive

O=CNc1nc(-c2cc([N+](=O)[O-])cs2)cs1
mutagenic call [5]: active; positive

CCc1cn([C@H]2C[C@H](O)[C@@H](CO)O2)c(=O)[nH]c1=O
mutagenic call [6]: no conclusion
mutagenic call (Species/Cell Type: Drosophila melanogaster, Sex: Male, Assay Type: Heritable translocation test, chromosome aberrations, Assay Code: DHTT, Evaluation Type: Evaluation A (Pre-1980)): no conclusion
mutagenic call [7]: no conclusion
mutagenic call [8]: no conclusion

Cc1ccc(O)cc1
mutagenic call (Species/Cell Type: Allium cepa, Assay Type: Chromosome aberrations, Assay Code: ALCT, Evaluation Type: Evaluation A (Pre-1980)): no conclusion
mutagenic call [7]: no conclusion
mutagenic call (Species/Cell Type: Human, Assay Type: Sister-chromatid exchange (SCE) in vitro, Assay Code: SC1-, Evaluation Type: Evaluation B (Post-1980)): inactive; negative
mutagenic call [9]: no conclusion

c1ccc2c(C3CO3)c3ccccc3cc2c1 (centres undefined)
mutagenic call [5]: active; positive

CCN(Cc1cccc(S(=O)(=O)O)c1)c1ccc(C(=C2C=CC(=[N+](CC)Cc3cccc(S(=O)(=O)O)c3)C=C2)c2ccc(O)cc2S(=O)(=O)[O-])cc1
mutagenic call (Species/Cell Type: Bacillus subtilis (H17 vs M45), Assay Type: Rec-assay, spot test, DNA effects (bacterial DNA repair), Assay Code: REWT, Evaluation Type: Evaluation A (Pre-1980)): no conclusion
mutagenic call (Species/Cell Type: Bacillus subtilis (H17 vs M45T), Assay Type: Rec-assay, spot test, DNA effects (bacterial DNA repair), Assay Code: REXT, Evaluation Type: Evaluation A (Pre-1980)): no conclusion
mutagenic call [4]: active; positive
mutagenic call (Species/Cell Type: Saccharomyces cerevisiae, Assay Type: Mitotic recombination or gene conversion, Assay Code: YEC-, Evaluation Type: Evaluation A (Pre-1980)): inactive; negative
mutagenic call (Species/Cell Type: Salmonella typhimurium (one or more of the five standard strains: TA98, TA100, TA1535, TA1537, and TA1538), Assay Type: Histidine reverse gene mutation, Ames assay, Assay Code: SAL-, Evaluation Type: Evaluation A (Pre-1980)): inactive; negative

O=C1CCCc2c1ccc1c2ccc2ccccc21
mutagenic call [10]: active; positive

CCCCOc1ccc(CC(=O)NOC(C)=O)cc1
mutagenic call [1]: active; positive

CCC(Br)(CC)C(=O)NC(N)=O
call (Species/Cell Type: Nonhuman, Assay Code: CCG-, Evaluation Type: Evaluation A (Pre-1980)): inactive; negative

Nc1ccc2ccccc2c1
mutagenic call [11]: active; positive
mutagenic call [6]: no conclusion
mutagenic call (Species/Cell Type: Escherichia coli polA (W3110 vs P3478), Assay Type: Rec-assay, DNA effects (bacterial DNA repair), Assay Code: RE2+, Evaluation Type: Evaluation A (Pre-1980)): active; positive
mutagenic call (Species/Cell Type: Escherichia coli polA (W3119 vs P3478), Assay Type: Rec-assay, DNA effects (bacterial DNA repair), Assay Code: RE1-, Evaluation Type: Evaluation A (Pre-1980)): inactive; negative
mutagenic call (Species/Cell Type: Escherichia coli polA (W3119 vs P3478), Assay Type: Rec-assay, DNA effects (bacterial DNA repair), Assay Code: RE1T, Evaluation Type: Evaluation A (Pre-1980)): no conclusion
mutagenic call [2]: active; positive
mutagenic call (Species/Cell Type: Mammalian polychromatic erythrocytes, Assay Type: Micronucleus test, chromosome aberrations, Assay Code: MNT+, Evaluation Type: Evaluation A (Pre-1980)): active; positive
mutagenic call (Species/Cell Type: Mouse (BALB/c-3T3) cells, Assay Type: Cell transformation, Assay Code: CTB-, Evaluation Type: Evaluation A (Pre-1980)): inactive; negative
mutagenic call (Species/Cell Type: Mouse embryo (AKR/ME) cells, Assay Type: Cell transformation, Assay Code: CTK+, Evaluation Type: Evaluation A (Pre-1980)): active; positive
mutagenic call (Species/Cell Type: Mouse, Sex: Male, Assay Type: Sperm morphology, Assay Code: SPI-, Evaluation Type: Evaluation A (Pre-1980)): inactive; negative
mutagenic call (Species/Cell Type: Neurospora crassa, Assay Type: Forward gene mutation, Assay Code: NEF+, Evaluation Type: Evaluation A (Pre-1980)): active; positive
call (Species/Cell Type: Nonhuman, Assay Code: CCG+, Evaluation Type: Evaluation A (Pre-1980)): active; positive
mutagenic call (Species/Cell Type: Nonhuman, Assay Type: Sister-chromatid exchange (SCE) in vitro, Assay Code: SC2+D*, Activation: With metabolic activation, Dose Response: With dose response, Evaluation Type: Evaluation B (Post-1980)): active; positive
mutagenic call (Species/Cell Type: Nonhuman, Assay Type: Sister-chromatid exchange (SCE) in vivo, Assay Code: SC3+, Evaluation Type: Evaluation B (Post-1980)): active; positive
mutagenic call (Species/Cell Type: Saccharomyces cerevisiae, Assay Type: Forward gene mutation, Assay Code: YEF+*, Activation: With metabolic activation, Evaluation Type: Evaluation A (Pre-1980)): active; positive
mutagenic call (Species/Cell Type: Saccharomyces cerevisiae, Assay Type: Mitotic recombination or gene conversion, Assay Code: YEC+, Evaluation Type: Evaluation A (Pre-1980)): active; positive
mutagenic call (Species/Cell Type: Saccharomyces cerevisiae, Assay Type: Mitotic recombination or gene conversion, Assay Code: YEH+*, Activation: With metabolic activation, Evaluation Type: Evaluation A (Pre-1980)): active; positive
mutagenic call (Species/Cell Type: Saccharomyces cerevisiae, Assay Type: Mitotic recombination or gene conversion, Assay Code: YEH-, Evaluation Type: Evaluation A (Pre-1980)): inactive; negative
mutagenic call [10]: active; positive
mutagenic call (Species/Cell Type: Salmonella typhimurium, Assay Type: Forward and reverse gene mutation, host-mediated assay, Assay Code: HMA+, Evaluation Type: Evaluation A (Pre-1980)): active; positive
mutagenic call [3]: active; positive
mutagenic call (Species/Cell Type: Syrian hamster embryo (SHE) cells, Assay Type: Cell transformation, clonal assay, Assay Code: CTC+, Evaluation Type: Evaluation A (Pre-1980)): active; positive
mutagenic call (Species/Cell Type: Tradescantia species, Assay Type: Gene mutation, Assay Code: TRM+D, Dose Response: With dose response, Evaluation Type: Evaluation A (Pre-1980)): active; positive

C=Cc1cc(C)cc(C)c1
mutagenic call (Species/Cell Type: Human lymphocytes, Assay Type: Sister-chromatid exchange (SCE) in vitro, Assay Code: SCL+D, Dose Response: With dose response, Evaluation Type: Evaluation B (Post-1980)): active; positive
mutagenic call (Species/Cell Type: Human, Assay Type: Sister-chromatid exchange (SCE) in vitro, Assay Code: SC1+D, Dose Response: With dose response, Evaluation Type: Evaluation B (Post-1980)): active; positive

COc1cc([C@@H]2c3cc4c(cc3[C@@H](O[C@@H]3O[C@@H]5CO[C@@H](c6cccs6)O[C@H]5[C@H](O)[C@H]3O)[C@H]3COC(=O)[C@H]23)OCO4)cc(OC)c1O
mutagenic call [11]: active; positive
mutagenic call [1]: active; positive

Cc1ncc(CO)c(C(=O)O)c1O
mutagenic call [7]: no conclusion
mutagenic call [8]: no conclusion

OCC(c1ccc(Cl)cc1)c1ccc(Cl)cc1
mutagenic call [6]: no conclusion

C[C@H](CC[C@H](C)OS(C)(=O)=O)OS(C)(=O)=O
mutagenic call (Species/Cell Type: Rodents, Sex: Male, Assay Type: Dominant lethal test, Assay Code: DLT+, Evaluation Type: Evaluation A (Pre-1980)): active; positive

Cc1ccc(S(N)(=O)=O)cc1
mutagenic call [6]: no conclusion
mutagenic call (Species/Cell Type: Mammalian polychromatic erythrocytes, Assay Type: Micronucleus test, chromosome aberrations, Assay Code: MNTT, Evaluation Type: Evaluation B (Post-1980)): no conclusion

COc1ccc2c(c1)C(=O)N(CCc1ccc(S(=O)(=O)NC(=O)NC3CCCCC3)cc1)C(=O)C2(C)C
mutagenic call [9]: no conclusion

COc1cc(N=Nc2ccccc2)ccc1[N+](=O)[O-]
mutagenic call [5]: active; positive

— PubChem BioAssay AID1259408 (Genetic Toxicology Data Bank (GENE-TOX), 2018)
